In US7361785B2, “Compound protecting against ultraviolet rays” (Lead Chemical Co., Ltd., priority 2002, dated 2008):

Tested on: guinea pigs' skin
Experiment: Blocking effects against UV ray irradiated on guinea pigs' skin
Type: in vivo, male Hartley guinea pigs
Conditions: 2.5% and 5% ointments, comparison within Table 1
Protocol: Each compound of the present invention and commercially available p-methoxy cinnamic acid-2-ethyl hexyl as a positive reference were mixed with an ointment base (Plastibase), and 2.5% (mass % of active ingredient) and 5% ointment were prepared for each. The belly area of male Hartley guinea pigs that were 6 to 10 weeks old was shaved, and then further close shaved using an electric shaver. The test animals were then anaesthetized by injecting pentobarbital sodium (30 mg/kg) in their abdominal cavity. Then, 100 mg of the base material, 2.5% ointment and the 5% ointment were respectively spread in 6 to 7 cm long/15 cm wide areas of the shaved belly area of the test animal starting from its head. 10 minutes after spreading, the skin was covered with a piece of felt in which 9 holes (3×3) with 1 cm diameter had been made. A UV ray (3000 Lux) was then irradiated for a 90 second period. 24 hours after the irradiation, the intensity of the red circular marks that had been produced were observed, and the blocking effect investigated. Note that, the evaluation of the UV ray blocking effect was carried out in accordance with the following evaluation criteria (score based on 5 level evaluation).
In advance, 99 types of related compound were prepared using the test method described above as 10% ointments including the compounds of the present invention (the compounds expressed by formula I) and the compounds that are the active ingredient of the UV ray protection agent of the present invention (the compounds expressed by formula I′). A screening test was performed, and 9 compounds that 100% blocked the UV rays selected. Then, lower concentration ointments were prepared for these 9 compounds and an investigation was carried out to test the UV ray protection effect thereof. Note that, as a reference compound, the results for p-methoxy cinnamic acid ethyl hexyl that is used as the active ingredient in commercially sold UV ray protection agents are also shown.
With `O=C(Oc1cccc2ccccc12)c1ccccc1F` [CU-9005] the “UV ray protection effect (in words)” value was “strongest UV ray protection effect”.

Same assay, conditions: total score for 2.5% and 5% ointments, 6 irradiated sites each scored 0-4, complete blocking = 24; UV 3000 Lux for 90 s, read 24 hours after irradiation
In the case of `O=C(Oc1cccc2ccccc12)c1ccccc1F` [CU-9005], the “UV ray blocking effect score” value is reported as 24.
With `Cc1ccccc1OC(=O)c1ccc2ccccc2c1` [CU-2010, o-tolyl-2-naphthyl carboxylate] the “UV ray blocking effect score” value was 21.
For `COc1cccc(C(=O)Oc2ccccc2C)c1` [CU-2102], the “UV ray blocking effect score” value was 15.
In the case of `Cc1ccc(OC(=O)c2ccc3ccccc3c2)cc1` [CU-5004, p-tolyl-2-naphthyl carboxylate], the “UV ray blocking effect score” value is reported as 20.
With `O=C(Oc1ccc2ccccc2c1)c1ccccc1F` [CU-10005] the “UV ray blocking effect score” value was 7.
In the case of `COc1cccc(C(=O)Oc2ccc(C)cc2)c1` [CU-5008], the “UV ray blocking effect score” value is reported as 13.
In the case of `C/C=C/C(=O)Nc1ccccc1C(=O)O` [CU-1008], the “UV ray blocking effect score” value is reported as 20.
With `COc1ccc(C(=O)Oc2ccc(C)cc2)cc1` [CU-5009, p-tolyl anisate] the “UV ray blocking effect score” value was 19.
For `Cc1ccc([N+](=O)[O-])cc1OC(=O)C=Cc1ccccc1` [CU-11005], the “UV ray blocking effect score” value was 12.
For `CCCCC(CC)COC(=O)C=Cc1ccc(OC)cc1` (stereo not drawn) [p-Methoxy-cinnamic acid-2-ethyl hexyl, reference compound], the “UV ray blocking effect score” value was 18.

Tested on: not listed separately
Experiment: Acute toxicity resulting from single under skin injection in mice
Type: in vivo, male ddY mice
Conditions: male, ddY, mouse, in vivo, subcutaneous, 1 g/kg; single under skin injection, mice
Protocol: (§1) An investigation was carried out using 5 week old male ddY mice.
(§2) Each compound (250 mg) was placed in suspension using the same amount of Tween-80, and then diluted with physiologic saline (5 mL) to form a 5% suspension. Then, supersonic treatment was performed to create the specimen. 0.2 mL/10 g (1 g/kg) of the specimen was injected per body weight under the skin of the back portion of each mouse in groups of five mice. The behavior of the mice was then observed for 1 week after injection while the mice were fed. The body weight of the mice was measured on the 1st, 3rd, 6th and 7th days. After one week, an abdominal section was performed, and changes in the various internal organs and abnormality of the injected area checked for.
For `Cc1ccc(OC(=O)c2ccc3ccccc3c2)cc1` [CU-5004, p-tolyl-2-naphthyl carboxylate], the LD50 at 1 week was at least 1000 mg/kg.
With `O=C(Oc1ccc2ccccc2c1)c1ccccc1F` [CU-10005] the LD50 at 1 week was at least 1000 mg/kg.
With `COc1cccc(C(=O)Oc2ccc(C)cc2)c1` [CU-5008] the LD50 at 1 week was at least 1000 mg/kg.
Work on `COc1ccc(C(=O)Oc2ccc(C)cc2)cc1` [CU-5009, p-tolyl anisate] yielded an LD50 at 1 week of at least 1000 mg/kg.

Tested on: mice
Experiment: as above
Type: in vivo, male ddY mice
Conditions: single under skin injection 1 g/kg
Protocol: as §1, §2
In the case of `Cc1ccc(OC(=O)c2ccc3ccccc3c2)cc1` [CU-5004, p-tolyl-2-naphthyl carboxylate], the “body weight by the 7th day following injection” value is reported as “recovered to its level at the time of the first injection”.
With `COc1cccc(C(=O)Oc2ccc(C)cc2)c1` [CU-5008] the “body weight by the 7th day following injection” value was “recovered to its level at the time of the first injection”.
In the case of `COc1ccc(C(=O)Oc2ccc(C)cc2)cc1` [CU-5009, p-tolyl anisate], the “body weight by the 7th day following injection” value is reported as “recovered to its level at the time of the first injection”.

Same assay, conditions: single under skin injection 1 g/kg, groups of five mice, observed 1 week
With `Cc1ccc(OC(=O)c2ccc3ccccc3c2)cc1` [CU-5004, p-tolyl-2-naphthyl carboxylate] the Case of death was 0/5.
With `O=C(Oc1ccc2ccccc2c1)c1ccccc1F` [CU-10005] the Case of death was 0/5.
In the case of `COc1cccc(C(=O)Oc2ccc(C)cc2)c1` [CU-5008], the Case of death is reported as 0/5.
With `COc1ccc(C(=O)Oc2ccc(C)cc2)cc1` [CU-5009, p-tolyl anisate] the Case of death was 0/5.

Same assay, conditions: single under skin injection 1 g/kg, observed 1 week
For `Cc1ccc(OC(=O)c2ccc3ccccc3c2)cc1` [CU-5004, p-tolyl-2-naphthyl carboxylate], the Observed items was “Weight reduction”.
In the case of `O=C(Oc1ccc2ccccc2c1)c1ccccc1F` [CU-10005], the Observed items is reported as “No abnormalities”.
With `COc1cccc(C(=O)Oc2ccc(C)cc2)c1` [CU-5008] the Observed items was “Weight reduction”.
With `COc1ccc(C(=O)Oc2ccc(C)cc2)cc1` [CU-5009, p-tolyl anisate] the Observed items was “Weight reduction”.

Same assay, conditions: single under skin injection 1 g/kg, weighed on days 1, 3, 6, 7
With `Cc1ccc(OC(=O)c2ccc3ccccc3c2)cc1` [CU-5004, p-tolyl-2-naphthyl carboxylate] the “body weight of the mice following injection” value was “decreased”.
With `O=C(Oc1ccc2ccccc2c1)c1ccccc1F` [CU-10005] the “body weight of the mice following injection” value was “increased following injection in the same manner as the body weight of the mice in a reference group”.
With `COc1cccc(C(=O)Oc2ccc(C)cc2)c1` [CU-5008] the “body weight of the mice following injection” value was “decreased”.
In the case of `COc1ccc(C(=O)Oc2ccc(C)cc2)cc1` [CU-5009, p-tolyl anisate], the “body weight of the mice following injection” value is reported as “decreased”.
